Measurements from patent publication US10793557B2, “Sting agonist compounds” (Merck Sharp & Dohme Corp., priority 2018, dated 2020).

How the values were obtained:
[1] = system: secretion of interferon-beta from THP1 cells; assay: IFN-β secretion in THP1 cell culture (5 h); type: cell-based; conditions: Homo sapiens, THP-1, 5 h, 30 uM cGAMP = 100%; for activation at 30 µM: compound at 30 μM, read-out: % Effect at 30 μM relative to 2′3′-cGAMP; for activation at 3 µM: compound at 3 uM, read-out: % Effect relative to 2′3′-cGAMP (@ 3 uM)
Outline: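 Thawed THP1 cells (0.8×10^6/mL, RPMI with 0.5% FBS) exposed to compounds 1.5–30000 nM (0.3% DMSO) for 5 h at 37 °C. Supernatant IFN-β quantified by AlphaLISA. Percent effect normalised to 30 uM cGAMP and DMSO controls; EC50 from 4-parameter fit.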

full-length HAQ STING = target: T1, full-length HAQ STING (Homo sapiens, UniProt Q86WV6, G230A/H232R/R293Q/R71H); assay: 3H-cGAMP filtration binding assay (HAQ STING); conditions: for EC50: competition with tritiated cGAMP, HAQ STING membrane
T1 construct: AviTag (after GG linker) (C); HRV3C cleavage site (after GS linker) (C); HIS8 (C); made in house; host or cells: Trichoplusia ni (Hi-Five) insect cells infected with baculovirus (virus generated and amplified in Sf21 cells); used as a washed membrane preparation
Outline: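 Hi-Five (T. ni) membranes overexpressing the STING variant (2.2 ug/ml working) preincubated with compound 60 min at RT in PBS, then [3H]cGAMP (8 nM working stock) added for 60 min at RT. Bound radioactivity captured on GF/B filters and counted by scintillation; EC50 from 4-parameter fit of control-normalized activity.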

full-length WT STING = target: T2, full-length WT STING (Homo sapiens, UniProt Q86WV6, H232R); assay: 3H-cGAMP filtration binding assay (WT STING); conditions: for EC50: competition with tritiated cGAMP, WT STING membrane
T2 construct: AviTag (after gg linker) (C); HRV3C cleavage site (after gs linker) (C); HIS8 (C); made in house; host or cells: Trichoplusia ni (Hi-Five) insect cells infected with baculovirus (virus generated and amplified in Sf21 cells); used as a washed membrane preparation
Outline: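 Competitive filtration binding of [3H]cGAMP (16 nM working stock) to T. ni membranes overexpressing full-length WT human STING, 60 min at RT in PBS. Bound radioactivity counted after GF/B filtration; 10-point 1:3 titration, EC50 from 4-parameter fit after control normalisation.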

T2 sequence (Q86WV6 with tags, fused parts or gaps H232R): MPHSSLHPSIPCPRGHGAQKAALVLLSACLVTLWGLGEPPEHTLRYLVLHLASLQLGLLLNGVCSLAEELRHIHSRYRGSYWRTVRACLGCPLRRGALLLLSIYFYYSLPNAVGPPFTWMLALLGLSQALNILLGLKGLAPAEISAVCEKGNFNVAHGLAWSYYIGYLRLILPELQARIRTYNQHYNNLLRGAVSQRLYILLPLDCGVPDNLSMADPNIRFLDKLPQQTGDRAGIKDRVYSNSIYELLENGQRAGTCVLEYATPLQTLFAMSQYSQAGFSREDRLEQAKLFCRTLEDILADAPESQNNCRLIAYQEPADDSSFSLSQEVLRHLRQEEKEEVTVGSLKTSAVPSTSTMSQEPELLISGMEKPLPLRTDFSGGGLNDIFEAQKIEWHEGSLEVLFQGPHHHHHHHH
T1 sequence (Q86WV6 with tags, fused parts or gaps R71H/G230A/H232R/R293Q): as the sequence (Q86WV6 with tags, fused parts or gaps H232R) above, with R71H, G230A, R293Q counted along it

Row | Compound | EC50 (full-length HAQ STING) | EC50 (full-length WT STING) | inhibition at 2 µM (full-length HAQ STING; at 2,000 nM compound) | inhibition at 2 µM (full-length WT STING; at 2,000 nM compound) | inhibition at 7 µM (full-length WT STING; at 7,000 nM compound) | inhibition at 20 µM (full-length WT STING; at 20,000 nM compound) | activation at 30 µM [1] | activation at 3 µM [1]
1 | COc1cc2sc(C(=O)[C@H]3C[C@@H]3C(=O)O)cc2cc1OCCCOc1cc2cc(C(=O)[C@@H]3C[C@H]3C(=O)O)sc2cc1OC [Example 80, rac-(1S,2S)-2-(5-(3-((2-((1R, 2R)-2-carboxy-cyclopropane-1-carbonyl)-6-methoxybenzo[b]thiophen-5-yl)oxy)propoxy)-6-methoxybenzo[b]thiophene-2-carbonyl)cyclopropane-1-carboxylic acid] | 1300 nM | 12700 nM |  |  |  |  | 12% | 
2 | COc1cc2sc(C(=O)CCC(=O)O)cc2cc1CCCc1nc2cc(C(=O)CCC(=O)O)sc2cc1OC [Example 29, 4-(5-(3-(2-(3-carboxypropanoyl)-6-methoxybenzo [b]thiophen-5-yl)propyl)-6-methoxythieno[3,2-b]pyridin-2-yl)-4-oxobutanoic acid] | 8 nM | 44 nM |  |  |  |  | 107% | 
3 | COc1cc2sc(C(=O)C[C@H](C)C(=O)O)cc2cc1CCCOc1nc2cc(C(=O)C[C@H](C)C(=O)O)sc2cc1OC [Example 16, (S)-4-(5-(3-(2-((S)-3-carboxybutanoyl)-6-methoxybenzo [b]thiophen-5-yl)propoxy)-6-methoxythieno[3,2-b]pyridin-2-yl)-2-methyl-4-oxobutanoic acid] | 22 nM | 51 nM |  |  |  |  | 70% | 
4 | COc1cc2sc(CC[C@H](C)C(=O)O)cc2cc1OCCCOc1c(OC)cc2sc(C(=O)C[C@H](C)C(=O)O)cc2c1Br [Example 146, (S)-4-(4-bromo-5-(3-((2-((S)-3-carboxybutyl)-6-methoxybenzo[b]thiophen-5-yl)oxy)propoxy)-6-methoxybenzo[b]thiophen-2-yl)-2-methyl-4-oxobutanoic acid] |  |  | 55% | 18% |  |  |  | 27%
5 | COc1cc2sc(C(=O)C[C@H](C)C(=O)O)cc2cc1OCCCOc1c(O)cc2sc(C(=O)C[C@H](C)C(=O)O)cc2c1F [Example 189, (S)-4-(5-(3-((2-((S)-3-carboxybutanoyl)-4-fluoro-6-hydroxybenzo[b]thiophen-5-yl)oxy)propoxy)-6-methoxybenzo[b]thiophen-2-yl)-2-methyl-4-oxobutanoic acid] | 1 nM | 2 nM |  |  |  |  |  | 111%
6 | COc1cc2sc(C(=O)CCC(=O)O)cc2cc1CCCOc1c(OC)cc2sc(C(=O)CCC(=O)O)cc2c1F [Example 32, 4-(5-(3-((2-(3-carboxypropanoyl)-4-fluoro-6-methoxybenzo[b]thiophen-5-yl)oxy)propyl)-6-methoxybenzo [b]thiophen-2-yl)-4-oxobutanoic acid] | 4 nM | 9 nM |  |  |  |  | 117% | 
7 | COc1cc2sc(C(=O)C[C@H](C)C(=O)O)cc2cc1OCCCCOc1c(OC)cc2sc(C(=O)C[C@H](C)C(=O)O)cc2c1F [Example 93, (S)-4-(5-(4-((2-((S)-3-carboxybutanoyl)-4-fluoro-6-methoxybenzo[b]thiophen-5-yl)oxy)butoxy)-6-methoxybenzo[b]thiophen-2-yl)-2-methyl-4-oxobutanoic acid] | 1 nM | 3 nM |  |  |  |  | 87% | 
8 | COc1cc2cc(C(=O)CCC(=O)O)sc2cc1OCCCc1cc2cc(C(=O)CCC(=O)O)sc2cc1C [Example 129, 4-(5-(3-((2-(3-carboxypropanoyl)-5-methoxybenzo[b]thiophen-6-yl)oxy)propyl)-6-methylbenzo[b]thiophen-2-yl)-4-oxobutanoic acid] | 3500 nM | 17100 nM |  |  |  |  | 50% | 
9 | COc1cc2sc(C(=O)C[C@H](C)C(=O)O)cc2cc1OCCCCCCOc1cc2cc(C(=O)C[C@H](C)C(=O)O)sc2cc1OC [Example 110, (2S,2′S)-4,4′-(5,5′-(hexane-1,6-diylbis(oxy))bis(6-methoxybenzo[b]thiophene-5,2-diyl))bis(2-methyl-4-oxobutanoic acid)] | 18600 nM |  |  |  |  | 15% | 6% | 
10 | COc1cc2sc(C(=O)C[C@H](C)C(=O)O)cc2cc1NCCCOc1cc2cc(C(=O)C[C@H](C)C(=O)O)sc2cc1OC [Example 74, (S)-4-(5-(3-((2-((S)-3-carboxybutanoyl)-6-methoxybenzo[b]thiophen-5-yl)amino)propoxy)-6-methoxybenzo[b]thiophen-2-yl)-2-methyl-4-oxobutanoic acid] | 4 nM | 6 nM |  |  |  |  | 16% | 

Further lines, with some results ahead:

Row | EC50 (full-length HAQ STING) | EC50 (full-length WT STING) | inhibition at 2 µM (full-length HAQ STING; at 2,000 nM compound) | inhibition at 2 µM (full-length WT STING; at 2,000 nM compound) | inhibition at 7 µM (full-length WT STING; at 7,000 nM compound) | inhibition at 20 µM (full-length WT STING; at 20,000 nM compound) | Compound | activation at 30 µM [1] | activation at 3 µM [1]
11 | 340 nM | 2640 nM |  |  |  |  | COc1cc2sc(C(=O)CCC(=O)O)cc2c(F)c1OCCCCCOc1c(OC)cc2sc(C(=O)CCC(=O)O)cc2c1F [Example 117, 4,4′-(5,5′-(pentane-1,5-diylbis(oxy))bis(4-fluoro-6-methoxybenzo[b]thiophene-5,2-diyl))bis(4-oxobutanoic acid)] | 123% | 
12 | 1 nM | 2 nM |  |  |  |  | COc1cc2sc(C(=O)C[C@H](C)C(=O)O)cc2c(F)c1OCCCOc1c(OC)cc2sc(C(=O)C[C@H](C)C(=O)O)cc2c1Br [Example 123, (S)-4-(5-(3-((4-bromo-2-((S)-3-carboxybutanoyl)-6-methoxybenzo[b]thiophen-5-yl)oxy)propoxy)-4-fluoro-6-methoxybenzo[b]thiophen-2-yl)-2-methyl-4-oxobutanoic acid] | 105% | 
13 | 3 nM | 12 nM |  |  |  |  | COc1cc2sc(C(=O)C[C@H](C)C(=O)O)cc2c(F)c1OCCCC(C)Oc1c(OC)cc2sc(C(=O)C[C@H](C)C(=O)O)cc2c1F (stereo partly drawn) [Example 139, (2S,2′S)-4,4′-((pentane-1,4-diylbis(oxy))bis(4-fluoro-6-methoxybenzo[b]thiophene-5,2-diyl))bis(2-methyl-4-oxobutanoic acid)] | 57% | 
14 | 2150 nM |  |  |  | 28% |  | COc1cc2sc(C(=O)C[C@H](C)C(=O)O)cc2c(F)c1OC(C)CCC(C)Oc1c(OC)cc2sc(C(=O)C[C@H](C)C(=O)O)cc2c1F (stereo partly drawn) [Example 140, (2S,2′S)-4,4′-((hexane-2,5-diylbis(oxy))bis(4-fluoro-6-methoxybenzo[b]thiophene-5,2-diyl))bis(2-methyl-4-oxobutanoic acid)] |  | 31%
15 | 21 nM | 264 nM |  |  |  |  | COc1cc2sc(C(=O)C[C@H](C)C(=O)O)cc2c(F)c1CCCOc1c(OC)cc2sc(CCC(C)(C)C(=O)O)cc2c1F [Example 114, (S)-4-(5-(3-((2-(3-carboxy-3-methylbutyl)-4-fluoro-6-methoxybenzo[b]thiophen-5-yl)oxy)propyl)-4-fluoro-6-methoxybenzo[b]thiophen-2-yl)-2-methyl-4-oxobutanoic acid] | 57% | 
16 | 1 nM | 9 nM |  |  |  |  | COc1cc2sc(C(=O)C[C@H](C)C(=O)O)cc2c(F)c1OCCCOc1c(OC)cc2sc(C(=O)[C@@H]3C[C@H]3C(=O)O)cc2c1F [Example 86, trans-2-(5-(3-((2-((S)-3-carboxybutanoyl)-4-fluoro-6-methoxybenzo[b]thiophen-5-yl)oxy)propoxy)-4-fluoro-6-methoxybenzo[b]thiophene-2-carbonyl)cyclopropane carboxylic acid] | 131% | 
17 | 22 nM | 371 nM |  |  |  |  | COc1cc2sc(C(=O)C[C@H](C)C(=O)O)cc2cc1OCCCCCOc1c(OC)cc2sc(C(=O)C[C@H](C)C(=O)O)cc2c1F [Example 103, (S)-4-(5-((5-((2-((S)-3-carboxybutanoyl)-4-fluoro-6-methoxybenzo[b]thiophen-5-yl)oxy)pentyl)oxy)-6-methoxybenzo[b]thiophen-2-yl)-2-methyl-4-oxobutanoic acid] | 79% | 
18 | 1 nM | 2 nM |  |  |  |  | COc1cc2sc(C(=O)C[C@H](C)C(=O)O)cc2cc1NCCCOc1c(OC)cc2sc(C(=O)C[C@H](C)C(=O)O)cc2c1F [Example 176, (S)-4-(5-((3-((2-((S)-3-Carboxybutanoyl)-4-fluoro-6-methoxybenzo [b]thiophen-5-yl)oxy)propyl)amino)-6-methoxybenzo[b]thiophen-2-yl)-2-methyl-4-oxobutanoic acid] | 44% | 
19 | 2 nM | 94 nM |  |  |  |  | COc1cc2sc(C(=O)C[C@H](C)C(=O)O)cc2cc1OCCCOc1c(OC)cc2sc(C(=O)[C@@H]3C[C@H]3C(=O)O)cc2c1F [Example 89, trans-2-(5-(3-((2-((S)-3-carboxybutanoyl)-6-methoxybenzo[b]thiophen-5-yl)oxy)propoxy)-4-fluoro-6-methoxybenzo[b]thiophene-2-carbonyl)cyclopropane carboxylic acid] | 112% | 
